Measured values published in ChEMBL document CHEMBL1201862, “PubChem BioAssay data set” (2004).
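Compound exposure: 48 hours, 5 concentrations, 96-well plates. At the GI50, growth is halved.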 Activity calls are given as the source filed them. No stated cut-off is given here; in the data, active = GI50 up to about 1.1 µM and inactive = higher.

Tests used:
Assay in all cases: growth of human tumour cells (NCI), 48 h
OVCAR-8 = tested on: OVCAR-8
U-251 = tested on: U-251
Malme-3M = tested on: Malme-3M
COLO 205 = tested on: COLO 205
ACHN = tested on: ACHN
SNB-19 = tested on: SNB-19
M14 = tested on: M14
RPMI-8226 = tested on: RPMI-8226
HCT-15 = tested on: HCT-15
786-0 = tested on: 786-0
LOX IMVI = tested on: LOX IMVI
CCRF-CEM = tested on: CCRF-CEM
SN12C = tested on: SN12C
SR = tested on: SR
OVCAR-4 = tested on: OVCAR-4
DU-145 = tested on: DU-145
MDA-N = tested on: MDA-N
MDA-MB-435 = tested on: MDA-MB-435
MDA-MB-231 = tested on: MDA-MB-231

| SMILES | GI50 (OVCAR-8) | GI50 (U-251) | GI50 (Malme-3M) | GI50 (COLO 205) | GI50 (ACHN) | GI50 (SNB-19) | GI50 (M14) | GI50 (RPMI-8226) | GI50 (HCT-15) [µM] | GI50 (786-0) | GI50 (LOX IMVI) | GI50 (CCRF-CEM) | GI50 (SN12C) | GI50 (SR) | GI50 (OVCAR-4) | GI50 (DU-145) | GI50 (MDA-N) | GI50 (MDA-MB-435) | GI50 (MDA-MB-231) |
| --- | --- | --- | --- | --- | --- | --- | --- | --- | --- | --- | --- | --- | --- | --- | --- | --- | --- | --- | --- |
| COC(=O)c1c(CC#N)cccc1CC#N | > 100 µM (inactive) | > 100 µM (inactive) | > 100 µM (inactive) | > 100 µM (inactive) | > 100 µM (inactive) | > 100 µM (inactive) | > 100 µM (inactive) | > 100 µM (inactive) | > 100 | > 100 µM (inactive) | > 100 µM (inactive) | > 100 µM (inactive) | > 100 µM (inactive) | > 100 µM (inactive) | > 100 µM (inactive) | – | – | – | – |
| O=C1N=C(Nc2ccccc2Cl)N/C1=C\c1ccc(Cl)cc1Cl | 38.3 µM (inactive) | 33.9 µM (inactive) | 53.6 µM (inactive) | 47.8 µM (inactive) | 62.1 µM (inactive) | > 100 µM (inactive) | 72.6 µM (inactive) | > 100 µM (inactive) | 39.5 | 68.2 µM (inactive) | > 100 µM (inactive) | 29.5 µM (inactive) | 25 µM (inactive) | 5.3 µM (inactive) | 44.3 µM (inactive) | 33.3 µM (inactive) | 8.11 µM (inactive) | 5.96 µM (inactive) | – |
| COC(=O)c1ccccc1/C=C1\Cc2c(C)cc(C)cc2C1=O | > 100 µM (inactive) | > 100 µM (inactive) | > 100 µM (inactive) | – | > 100 µM (inactive) | > 100 µM (inactive) | > 100 µM (inactive) | > 100 µM (inactive) | > 100 | > 100 µM (inactive) | > 100 µM (inactive) | > 100 µM (inactive) | > 100 µM (inactive) | > 100 µM (inactive) | > 100 µM (inactive) | – | > 100 µM (inactive) | – | > 100 µM (inactive) |
| C/C=C1\CN(C(=O)OC(C)(C)C)C1C(=O)OC(C)(C)C (stereo not given) | > 100 µM (inactive) | – | > 100 µM (inactive) | > 100 µM (inactive) | > 100 µM (inactive) | > 100 µM (inactive) | > 100 µM (inactive) | 68.7 µM (inactive) | > 100 | > 100 µM (inactive) | > 100 µM (inactive) | > 100 µM (inactive) | > 100 µM (inactive) | > 100 µM (inactive) | 53.6 µM (inactive) | – | > 100 µM (inactive) | > 100 µM (inactive) | – |
| Cc1cccc(Nc2cn(COCc3ccccc3)c(=O)[nH]c2=O)c1 | – | > 100 µM (inactive) | – | 84.1 µM (inactive) | > 100 µM (inactive) | > 100 µM (inactive) | > 100 µM (inactive) | 38.8 µM (inactive) | > 100 | > 100 µM (inactive) | 56.2 µM (inactive) | > 100 µM (inactive) | > 100 µM (inactive) | > 100 µM (inactive) | 41.5 µM (inactive) | > 100 µM (inactive) | > 100 µM (inactive) | > 100 µM (inactive) | – |
| O=C1c2ccccc2C(=O)N1C/C=N/NS(=O)(=O)c1ccc(F)cc1 | > 100 µM (inactive) | > 100 µM (inactive) | > 100 µM (inactive) | > 100 µM (inactive) | > 100 µM (inactive) | > 100 µM (inactive) | – | > 100 µM (inactive) | > 100 | > 100 µM (inactive) | > 100 µM (inactive) | > 100 µM (inactive) | > 100 µM (inactive) | > 100 µM (inactive) | > 100 µM (inactive) | – | – | – | – |
| C#CCCCC(=C)C[C@@H]1OC(=O)[C@H](C)[C@@H]1O | – | > 100 µM (inactive) | – | > 100 µM (inactive) | > 100 µM (inactive) | > 100 µM (inactive) | > 100 µM (inactive) | > 100 µM (inactive) | > 100 | > 100 µM (inactive) | > 100 µM (inactive) | > 100 µM (inactive) | > 100 µM (inactive) | – | > 100 µM (inactive) | > 100 µM (inactive) | > 100 µM (inactive) | > 100 µM (inactive) | – |
| CCN(CCN(CC)C(=O)NC)C(=O)NC | > 100 µM (inactive) | > 100 µM (inactive) | > 100 µM (inactive) | > 100 µM (inactive) | > 100 µM (inactive) | > 100 µM (inactive) | > 100 µM (inactive) | > 100 µM (inactive) | > 100 | > 100 µM (inactive) | > 100 µM (inactive) | > 100 µM (inactive) | > 100 µM (inactive) | > 100 µM (inactive) | – | > 100 µM (inactive) | > 100 µM (inactive) | – | > 100 µM (inactive) |
| Cn1nc(-c2ccccc2)c(N=[N+]=[N-])cc1=O | > 100 µM (inactive) | > 100 µM (inactive) | > 100 µM (inactive) | > 100 µM (inactive) | > 100 µM (inactive) | > 100 µM (inactive) | > 100 µM (inactive) | > 100 µM (inactive) | > 100 | > 100 µM (inactive) | > 100 µM (inactive) | > 100 µM (inactive) | > 100 µM (inactive) | > 100 µM (inactive) | > 100 µM (inactive) | – | – | – | – |
| CCCCCCCCCC[C@@H](O)[C@H]1CC[C@@H]([C@H]2CC[C@H]([C@H](O)CCCCCCCCCC[C@@H]3CC(CC(C)=O)C(=O)O3)O2)O1 (stereo not given in full) | 2.34 µM (inactive) | 2.65 µM (inactive) | 15.1 µM (inactive) | 1.52 µM (inactive) | 1.17 µM (inactive) | 2.9 µM (inactive) | 6.43 µM (inactive) | 2.39 µM (inactive) | 5.12 | 25.8 µM (inactive) | 1.23 µM (inactive) | 12.9 µM (inactive) | 2.17 µM (inactive) | 0.59 µM (active) | 18.9 µM (inactive) | 9.27 µM (inactive) | – | 32.4 µM (inactive) | 3.64 µM (inactive) |
| CN(C)CCn1c(=O)c2ccc3c4c(nn3CCN(C)C)c3cc(O)ccc3n(c1=O)c24 | < 0.01 µM (active) | < 0.0348 µM (active) | 0.354 µM (active) | 0.0706 µM (active) | < 0.0308 µM (active) | – | 0.397 µM (active) | 0.0541 µM (active) | 0.147 | < 0.01 µM (active) | < 0.0306 µM (active) | < 0.032 µM (active) | 0.0148 µM (active) | < 0.01 µM (active) | – | – | 0.181 µM (active) | 0.134 µM (active) | 0.0536 µM (active) |
| CC(=O)Nc1ccc(S(=O)(=O)NN(C)S(=O)(=O)c2ccc(C)cc2)cc1 | > 100 µM (inactive) | – | > 100 µM (inactive) | > 100 µM (inactive) | > 100 µM (inactive) | > 100 µM (inactive) | > 100 µM (inactive) | > 100 µM (inactive) | – | > 100 µM (inactive) | – | > 100 µM (inactive) | > 100 µM (inactive) | > 100 µM (inactive) | > 100 µM (inactive) | – | – | – | – |
| C=C(CO)CC(O)c1cc(OC)ccc1OC (stereo not given) | > 100 µM (inactive) | > 100 µM (inactive) | > 100 µM (inactive) | > 100 µM (inactive) | > 100 µM (inactive) | > 100 µM (inactive) | > 100 µM (inactive) | > 100 µM (inactive) | > 100 | > 100 µM (inactive) | > 100 µM (inactive) | > 100 µM (inactive) | > 100 µM (inactive) | – | > 100 µM (inactive) | – | – | – | – |
| O=Cc1ccc(-c2ccc(-c3ccc(CO)s3)o2)s1 | 7.28 µM (inactive) | 1.91 µM (inactive) | 18.2 µM (inactive) | 12.9 µM (inactive) | 28.7 µM (inactive) | 32 µM (inactive) | 20.4 µM (inactive) | 1.54 µM (inactive) | 24.4 | 2.47 µM (inactive) | 9.04 µM (inactive) | 1.58 µM (inactive) | 17.7 µM (inactive) | 0.239 µM (active) | 0.318 µM (active) | 11.5 µM (inactive) | – | 8.32 µM (inactive) | 22 µM (inactive) |
| NCCc1ccc2c(c1)C(=O)c1c(O)ccc(O)c1C2=O | 2.04 µM (inactive) | 3.64 µM (inactive) | 1.87 µM (inactive) | 1.68 µM (inactive) | 4.46 µM (inactive) | 4.72 µM (inactive) | 3.08 µM (inactive) | 4.14 µM (inactive) | 4.51 | 2.2 µM (inactive) | 4.11 µM (inactive) | 3.36 µM (inactive) | 2.51 µM (inactive) | 3.43 µM (inactive) | – | > 19.8 µM (inactive) | 2.82 µM (inactive) | – | 4.51 µM (inactive) |
| O=C1/C(=C\c2ccc(F)cc2)CCOc2c1ccc1ccccc21 | 12.7 µM (inactive) | 10.6 µM (inactive) | 16.5 µM (inactive) | 19 µM (inactive) | – | 17.7 µM (inactive) | 26.2 µM (inactive) | 3.3 µM (inactive) | 11.2 | 23 µM (inactive) | – | 5.82 µM (inactive) | 35.3 µM (inactive) | – | 15.3 µM (inactive) | 31 µM (inactive) | – | 26.8 µM (inactive) | 14.8 µM (inactive) |
| Cc1cc(C)c(N[S+]([O-])c2cccc([N+](=O)[O-])c2)c(C)c1 (stereo not given) | > 100 µM (inactive) | > 100 µM (inactive) | > 100 µM (inactive) | > 100 µM (inactive) | > 100 µM (inactive) | > 100 µM (inactive) | > 100 µM (inactive) | > 100 µM (inactive) | > 100 | > 100 µM (inactive) | – | > 100 µM (inactive) | > 100 µM (inactive) | > 100 µM (inactive) | – | > 100 µM (inactive) | – | > 100 µM (inactive) | – |
| COC(=O)c1c[nH]c2c1-c1cc(C(=O)OCc3ccccc3)n(S(=O)(=O)c3ccc(C)cc3)c1C(=O)C2=O | 0.237 µM (active) | 0.317 µM (active) | 0.103 µM (active) | 0.805 µM (active) | 0.28 µM (active) | 0.193 µM (active) | 0.155 µM (active) | 0.362 µM (active) | 0.194 | 0.22 µM (active) | 0.139 µM (active) | 0.346 µM (active) | 0.165 µM (active) | 0.262 µM (active) | 0.299 µM (active) | 0.154 µM (active) | – | 0.0318 µM (active) | 0.0481 µM (active) |
